Legend:
[1] = biological target: T1, Recombinant full-length human EP (Enteropeptidase) (Homo sapiens, UniProt P98073); experiment: In vitro inhibition potencies against Enteropeptidase (EP), fluorescent peptide GDDDDK-naphthylamine substrate; assay type: biochemical; conditions: 300 μM substrate, 1.25 nM EP; for inhibition at 0.1 µM: compound 0.1 μM; for inhibition at 1 µM: compound 1 μM; for inhibition at 10 µM: compound 10 μM; for kinact/KI: 12-point dose-dependence, time-dependent inhibition, duplicate dilutions, read-out: kinact/KI^App
T1 construct: Recombinant full-length human EP (PeproTech, Cat #450-48C); purchased PeproTech 450-48C
Method: In vitro inhibition potencies against Enteropeptidase (EP) Recombinant full-length human EP (PeproTech, Cat #450-48C) was used in this biochemical assay, with a quenched fluorescent labeled peptide GDDDDK-naphthylamine (NA) (Sigma, Cat #G5261) as the substrate in a buffer of 50 mM Tris-HCl pH 7.4, 200 mM NaCl and 0.01% Triton X-100. The enzyme activity was measured by following the formation of the cleavage product […](NA) by monitoring the fluorescence intensity (FI) at excitation/emission wavelengths of 340/410 nm. The steady-state kinetic characterization studies yielded an average of KM to be 412±22 μM and the apparent turnover number kcat^app of 11.8±0.4 s^−1 (N=2).
Compound inhibition studies were carried out under the conditions of 300 μM substrate and 1.25 nM EP. Reaction progress curves were collected by reading the FI at 340/410 nm continuously for 1 hour at an interval of 1 minute.
To screen compounds of formula (I), inhibition was studied at 4 different compound concentrations of 10 μM, 1 μM, 0.1 μM and 0.01 μM. Initial velocity of the reaction was determined, and percent of inhibition was calculated by comparing to the reaction in the absence of compound.
Accurate measurements of the inhibition potencies of selected compounds were studied in a 12-point dose-dependence fashion. […] Compound potency was measured by determining the inactivation rate constant (kobs) following the reaction change from the initial velocity vi to the steady-state velocity vs at various compound concentrations. The inactivation rate constants (kobs), were derived by fitting the reaction progress curves to eq. 1.
where YT is the detection signal of the reaction at time t, vi and vs are the initial and the steady-state velocities of the reaction, t is the reaction time. Y0 is the background signal (when t=0).
Compound binding mechanism was shown by plotting kobs˜[compound]. Hyperbolic fitting to eq. 2
conforms to a two-step binding mechanism as shown in Scheme BIO-1.
The plateau of the curve is the forward step rate constant of the isomerization step k3, KI^app is the inhibitor concentration that leads to half-maximal rate of inhibition of enzyme under the assay conditions. Compound inhibition potency was reported by the value of k3/KI^app.
A linear dependence of eq.3
indicates a one-step binding mechanism as shown in Scheme BIO-2
Slope of the linear fit gives the second-order rate constant of the compound binding k1, which is used to represent the compound inhibition potency.
(§1) Representative compounds of the present invention were tested according to the procedures as described in Biological Example 1 and Biological Example 2 above, with results as listed in Table 2 and Table 3, below. Results are reported as the %-inhibition (% Inh) or Kinact/KI value. Variability for the functional assay was typically within 20%. For the column headed Kinact/KI the listed measurement is the result of duplicate dilutions.

Bovine trypsin = biological target: T2, Bovine trypsin (Bos taurus, UniProt P00760); experiment: Biochemical Assay of Trypsin (T), H-D-CHA-AR-AMC substrate; conditions: 15 μM substrate, 0.025 nM Trypsin; for inhibition at 0.1 µM: compound 0.1 μM; for inhibition at 1 µM: compound 1 μM; for inhibition at 10 µM: compound 10 μM
T2 construct: purchased Sigma-Aldrich T1426
T2 sequence (P00760 24-246): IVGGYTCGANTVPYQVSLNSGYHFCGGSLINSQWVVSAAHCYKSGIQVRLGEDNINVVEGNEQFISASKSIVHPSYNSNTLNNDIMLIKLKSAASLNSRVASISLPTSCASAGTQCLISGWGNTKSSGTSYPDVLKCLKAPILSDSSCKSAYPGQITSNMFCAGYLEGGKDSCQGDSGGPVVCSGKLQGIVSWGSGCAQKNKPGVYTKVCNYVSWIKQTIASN
Method: Bovine trypsin was purchased from Sigma-Aldrich (Cat No. T1426), and 7-amino-4-methylcoumarin (AMC) conjugated peptide H-D-cyclohexylalanine (D-CHA)-AR-AMC was used as the substrate in the assay. The protease activity of trypsin was followed by measuring AMC production by the emission fluorescence intensity of AMC at 460 nm with the excitation at 375 nm, in the same assay buffer as used in the EP assay. The enzyme kinetic characterization studies yielded an average of KM to be 3.9±0.5 μM and the apparent turnover number kcat^app of 33.8±0.4 s^−1 (N=2).
Studies of compound inhibition against T were carried out under the conditions of 15 μM substrate and 0.025 nM Trypsin. Reaction progress curves were collected by reading the FI at 375/460 nm continuously for 1 hour at an interval of 1 minute. Similar to the procedure for Enteropeptidase described above, compounds of formula (I) were screened against Trypsin at 4 different concentrations to obtain the percent of inhibition at 10 μM, 1 μM, 0.1 μM and 0.01 μM, and accurate potencies of selected compounds against Trypsin were derived from detailed 12-point dose-dependence studies for time-dependent inhibitors.
as §1

T1 sequence (P98073 whole entry): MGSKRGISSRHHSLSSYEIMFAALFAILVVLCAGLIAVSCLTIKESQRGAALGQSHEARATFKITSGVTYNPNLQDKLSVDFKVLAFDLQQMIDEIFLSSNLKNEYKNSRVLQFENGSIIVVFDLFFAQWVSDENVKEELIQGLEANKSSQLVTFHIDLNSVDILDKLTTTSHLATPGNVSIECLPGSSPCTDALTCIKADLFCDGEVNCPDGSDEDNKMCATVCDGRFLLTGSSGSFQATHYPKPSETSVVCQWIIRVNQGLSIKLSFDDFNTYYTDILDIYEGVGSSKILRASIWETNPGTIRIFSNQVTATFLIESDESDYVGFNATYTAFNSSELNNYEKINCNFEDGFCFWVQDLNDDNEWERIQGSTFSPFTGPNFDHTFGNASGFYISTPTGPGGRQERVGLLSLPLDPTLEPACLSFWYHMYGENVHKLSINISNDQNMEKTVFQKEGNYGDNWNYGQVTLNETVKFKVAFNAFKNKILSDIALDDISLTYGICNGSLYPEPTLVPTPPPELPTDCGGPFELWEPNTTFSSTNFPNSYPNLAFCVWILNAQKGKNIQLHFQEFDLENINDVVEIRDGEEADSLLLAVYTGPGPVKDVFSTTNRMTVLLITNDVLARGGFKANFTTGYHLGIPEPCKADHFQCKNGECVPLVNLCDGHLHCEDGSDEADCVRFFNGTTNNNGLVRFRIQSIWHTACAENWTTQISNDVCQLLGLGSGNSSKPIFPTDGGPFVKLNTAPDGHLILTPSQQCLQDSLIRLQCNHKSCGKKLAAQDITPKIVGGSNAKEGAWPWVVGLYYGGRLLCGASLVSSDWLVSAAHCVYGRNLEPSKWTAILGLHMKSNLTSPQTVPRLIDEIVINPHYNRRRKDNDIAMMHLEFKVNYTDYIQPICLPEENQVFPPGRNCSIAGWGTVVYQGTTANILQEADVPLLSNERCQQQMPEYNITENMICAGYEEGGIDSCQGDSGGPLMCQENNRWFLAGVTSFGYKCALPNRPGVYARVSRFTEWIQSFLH

inhibition at 0.1 µM [1] [%] | inhibition at 1 µM [1] [%] | inhibition at 10 µM [1] [%] | inhibition at 0.1 µM (Bovine trypsin) [%] | inhibition at 1 µM (Bovine trypsin) [%] | inhibition at 10 µM (Bovine trypsin) [%] | kinact/KI [1] [M⁻¹ s⁻¹] | kinact/KI (Bovine trypsin; 12-point dose-dependence, time-dependent inhibition, duplicate dilutions, read-out: Kinact/KI^App) [M⁻¹ s⁻¹] | SMILES
45.2 | 102 | 101 | 99.2 | 100 | 100 |  |  | N=C(N)Nc1ccc(C(=O)Oc2cc(CCC(=O)O)cn3ncnc23)cc1 [Compound 25, 3-(8-(4-guanidinobenzoyloxy)-[1,2,4]triazolo[1,5-a]pyridin-6-yl)propanoic acid]
97.8 | 100 | 100 | 97.2 | 100 | 100 | 130000 | 159000 | N=C(N)Nc1ccc(C(=O)Oc2ccc(CC(=O)O)n3ncnc23)cc1 [Compound 1, 2-{8-[(4-carbamimidamidophenyl)carbonyloxy]-[1,2,4]triazolo[1,5-a]pyridin-5-yl}acetic acid]
-1.6 | 1.9 | 13.6 | -2.1 | 2.5 | 35.8 |  |  | N#CNC(=N)c1ccc(C(=O)Oc2ccc(CC(=O)O)n3ncnc23)cc1 [Compound 38, 2-(8-(4-(N-cyanocarbamimidoyl)benzoyloxy)-[1,2,4]triazolo[1,5-a]pyridin-5-yl)acetic acid]
15.3 | 80.1 | 97.9 | 9.6 | 57.1 | 97.7 |  |  | CNC(=N)Nc1ccc(C(=O)Oc2ccc(CC(=O)O)n3ncnc23)cc1 [Compound 34, 2-(8-(4-(3-methylguanidino)benzoyloxy)-[1,2,4]triazolo[1,5-a]pyridin-5-yl)acetic acid]
-0.8 | 11.3 | 52.3 | 5.7 | 8.7 | 66.5 |  |  | CNC(=N)c1ccc(C(=O)Oc2ccc(CC(=O)O)n3ncnc23)cc1 [Compound 33, 2-(8-(4-(N-methylcarbamimidoyl)benzoyloxy)-[1,2,4]triazolo[1,5-a]pyridin-5-yl)acetic acid]
92.1 | 99.5 | 100 | 96.5 | 100 | 100 |  |  | CS(=O)(=O)NC(=O)Cc1ccc(OC(=O)c2cnc(NC(=N)N)nc2)c2ncnn12 [Compound 30, 5-(2-(methylsulfonamido)-2-oxoethyl)-[1,2,4]triazolo[1,5-a]pyridin-8-yl 2-guanidinopyrimidine-5-carboxylate]
27.6 | 95.1 | 100 | 61 | 100 | 100 | 24400 |  | N=C(N)Nc1ccc(C(=O)Oc2ccc(CCC(=O)O)n3ccnc23)cc1 [Compound 2, 3-(8-(4-guanidinobenzoyloxy)imidazo[1,2-a]pyridin-5-yl)propanoic acid]
35 | 101 | 100 | 99.8 | 100 | 100 |  |  | N=C(N)Nc1ccc(C(=O)Oc2ccc(CCC(=O)O)n3ncnc23)cc1 [Compound 3, 3-(8-(4-guanidinobenzoyloxy)-[1,2,4]triazolo[1,5-a]pyridin-5-yl)propanoic acid]
0.5 | 12.2 | 51.8 | 1.6 | 2.8 | 25.5 |  |  | N=C(NN)c1ccc(C(=O)Oc2ccc(CC(=O)O)n3ncnc23)cc1 [Compound 39, 2-(8-(4-(hydrazinyl(imino)methyl)benzoyloxy)-[1,2,4]triazolo[1,5-a]pyridin-5-yl)acetic acid]
81.2 | 100 | 100 | 43.5 | 97.6 | 99.9 |  |  | N=C(N)Nc1ccc(C(=O)Oc2ccc(CC(=O)O)n3ncnc23)c(Cl)c1 [Compound 18, 2-(8-(2-chloro-4-guanidinobenzoyloxy)-[1,2,4]triazolo[1,5-a]pyridin-5-yl)acetic acid]
-10.7 | -10.1 | -10.8 | -8 | -0.4 | 10.1 |  |  | C/C(=N\O)Nc1ccc(C(=O)Oc2ccc(CC(=O)O)n3ncnc23)cc1 [Compound 40, (E)-2-(8-(4-(N′-hydroxyacetimidamido)benzoyloxy)-[1,2,4]triazolo[1,5-a]pyridin-5-yl)acetic acid]
85.8 | 99.7 | 99.8 | 95.7 | 99.9 | 100 |  |  | N=C(N)Nc1ncc(C(=O)Oc2ccc(CC(=O)NC(CC(=O)O)C(=O)O)n3ccnc23)cn1 (stereo not drawn) [Compound 31, 2-(2-(8-(2-guanidinopyrimidine-5-carbonyloxy)imidazo[1,2-a]pyridin-5-yl)acetamido)succinic acid]
-3 | -6.3 | 32.1 | 0.9 | 12.3 | 29.9 |  |  | N#Cc1cc(C(=O)Oc2ccc(CC(=O)O)n3ncnc23)ccc1NC(=N)N [Compound 22, 2-(8-(3-cyano-4-guanidinobenzoyloxy)-[1,2,4]triazolo[1,5-a]pyridin-5-yl)acetic acid]
36.3 | 98.8 | 100 | 14.6 | 80 | 99.9 |  |  | N=C(N)Nc1ccc(C(=O)Oc2ccc(CC(=O)O)n3ncnc23)c2ccoc12 [Compound 24]
37.8 | 100 | 100 | 94.1 | 100 | 100 |  |  | N=C(N)Nc1ccc(C(=O)Oc2ccc(CC(=O)NC(CCC(=O)O)(CCC(=O)O)CCC(=O)O)n3ncnc23)cc1 [Compound 7, 4-(2-carboxyethyl)-4-(2-(8-(4-guanidinobenzoyloxy)-[1,2,4]triazolo[1,5-a]pyridin-5-yl)acetamido)heptanedioic acid]
34.3 | 92.1 | 101 | 12.4 | 73.1 | 100 |  |  | N=C(N)Nc1ccc(C(=O)Oc2ccc(CC(=O)O)n3ncnc23)cc1O [Compound 23, 2-(8-(4-guanidino-3-hydroxybenzoyloxy)-[1,2,4]triazolo[1,5-a]pyridin-5-yl)acetic acid]

Source: patent US20220281866A1, “5,8-DISUBSTITUTED-[1,2,4]TRIAZOLO[1,5-A]PYRIDINYL AND 5,8-DISUBSTITUTED-IMIDAZO[1,2-A]PYRIDINE DERIVATIVES USEFUL AS INHIBITORS OF ENTEROPEPTIDASE” (Janssen Pharmaceutica NV, priority 2019, published 2022)
